Paper PMC6154976, “The potential HLA Class I-restricted epitopes derived from LeIF and TSA of Leishmania donovani evoke anti-leishmania CD8+ T lymphocyte response” (Scientific Reports, 2018)
Entries after “also recorded” stand apart in the source; their conditions may differ.

Key:
[1] = molecular target: HLA-A*0201 molecule on T2 cells (Homo sapiens, UniProt P04439, D140Y/D185E/D98H/E176V/E277Q/G131W/G231S/I119V/I121R/I166T/I218V/L300P/L318F/N151K/N90K/P208A/P217A/Q86G/Q94H/R138H/R169H/T345S); test: Peptide-binding assay (HLA stabilization assay, T2 cell line); format: cell-based; details: 20 μg/mL peptide, 20 hours, FI more than 1 = strong binding, Fig. S2; for fluorescence index (FI) value: T2 cells 2 × 10^5/well, serum-free RPMI, 37 °C, FACS, PE anti-HLA-A 02 (BB7.2), triplicate
Description: The efficiency of the shortlisted epitopes to stabilize the HLA-A 02 allele was measured by HLA stabilization assay using TAP-deficient human cell line that express HLA-A2 (T2 cell line) according to our previously described methodology with certain modifications. Briefly, T2 cells (2 × 10^5/well) were cultured with 20 μg/mL of individual peptides in serum-free RPMI medium for 20 hours at 37 °C in 5% CO2. The HLA stabilization assay was performed in triplicate for each peptide. The tumor HLA A2 bound 10mer peptide was used as positive control. The expression of HLA-A 02 on T2 cells was measured by PE-conjugated mouse anti-human HLA-A 02 monoclonal antibody (clone: BB7.2; Pharmingen), the samples were acquired by FACS Calibur and analyzed by CellQuest software (BD Biosciences). The binding affinity of each peptide was measured by a fluorescence index: FI = (mean PE fluorescence with the given peptide−mean PE fluorescence without peptide)/(mean […] fluorescence without peptide). The epitope with a fluorescence index (FI) more than 1 was considered as strong binding affinity epitopes.

[2] = tested on: PBMCs from HLA A2 negative VL treated subjects; test: Intracellular IFN-γ from CD8+ T cells (FACS); format: cell-based, human; details: six HLA A2 negative subjects, overnight plus 6 h brefeldin-A
Description: To evaluate the ability of the selected epitopes to trigger the immune cells by CD8+ T cell dependent manner, PBMCs (1 × 10^6/ml) from five HLAA2 positive VL treated subjects were incubated for overnight in the presence or absence of peptide at 37 °C and 5% CO2. Additionally, six HLA A2 negative VL treated subjects were also considered for this study. Stimulation with SLA was run in parallel to all experiments as described previously. After overnight incubation followed by 6 h incubation with brefeldin-A (1 mg/ml), cells were harvested, washed with PBS, and stained with anti-CD3-PerCP (BD Biosciences) and anti-CD8-FITC(BD Biosciences) conjugated antibodies for 30 min at 4 °C. The cells were then washed with stain buffer, fixed and permeabilized Cytofix-Cytoperm buffer (BD Biosciences) for 20 minutes at 4 °C. The intracellular level of IFN-γ was stained with anti-IFN-γ PE-conjugated antibody (BD Biosciences) for 30 minutes and washed with perm wash buffer (BD Biosciences). A logical gate set using was used to measure the co-expression of intracellular CD8+ ve IFN-γ. At least 30 000 cells were acquired for each analysis, and the results are shown in percentage gated value (% gated).

| Sequence | binding to / stabilization of HLA-A*0201 on T2 cells, in words [1] | intracellular CD3+ ve CD8+ ve IFN-γ [2] | fluorescence index (FI) value [1] |
| --- | --- | --- | --- |
| FIIDPNGMV [P8] | relatively weakly bound | – | – |
| KVLTLFAEV [P5] | stabilized the HLA A2; also recorded: strongly bound | triggered the HLA A2-ve host immune cells by producing CD8+ IFN-γ; also recorded: triggered CD3+ ve CD8+ ve IFN-γ level; also recorded: enhanced CD3+ CD8+ IFN-γ | above 2 |
| LLLAEPFPV [P4] | stabilized the HLA A2; also recorded: strongly bound | triggered the HLA A2-ve host immune cells by producing CD8+ IFN-γ | 1.81 |
| MLADKTKSI [P6] | relatively weakly bound | – | – |
| RLLEAFQFV [P7] | stabilized the HLA A2; also recorded: strongly bound | triggered CD3+ ve CD8+ ve IFN-γ level; also recorded: enhanced CD3+ CD8+ IFN-γ | above 2 |
| SLARRKLLL [P3] | relatively weakly bound | – | – |
| SMDSEYAHL [P9] | relatively weakly bound | – | – |
| TLDHLLVLL [P1] | stabilized the HLA A2; also recorded: strongly bound | triggered the HLA A2-ve host immune cells by producing CD8+ IFN-γ; also recorded: triggered CD3+ ve CD8+ ve IFN-γ level; also recorded: enhanced CD3+ CD8+ IFN-γ | above 2 |
| VLLEKATIL [P2] | stabilized the HLA A2; also recorded: strongly bound | – | above 2 |
